Reference: patent US20230017045A1, “PYRIDINE AND PYRIMIDINE CARBOXYLATE HERBICIDES AND METHODS OF USE THEREOF” (Dow AgroSciences LLC, priority 2017, published 2023)

The molecules below were run on test plant species (assay: Post-emergent herbicidal activity test (greenhouse, foliar spray, visual growth reduction)). Conditions: post-emergence, 336 h, ALOMY: blackgrass (Alopecurus myosuroides), 140 g ai/ha, 14 days after application, read-out: Visual Growth Reduction (%) 14 Days After Application, ALOMY.
Format: in vivo
In short: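 Visual scoring 14 d after treatment (0 = no injury, 100 = complete control) against nontreated and solvent-blank plants gave percent growth reduction. Foliar application used a track sprayer delivering 187 L/ha to seedlings at first or second true leaf stage, grown at 23–29 °C day, ~15 h photoperiod.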

Structure (SMILES)	pest or weed control at 140 g/ha
O=C(O)c1nc(-c2c(Cl)cc(C(F)(F)F)cc2Cl)ccc1Cl [F156, 3-Chloro-6-(2,6-dichloro-4-(trifluoromethyl)phenyl)picolinic acid]	45 to 59%

Same assay, conditions: post-emergence, 336 h, AMARE: redroot pigweed (Amaranthus retroflexus), 140 g ai/ha, 14 days after application, read-out: Visual Growth Reduction (%) 14 Days After Application, AMARE

Structure (SMILES)	pest or weed control at 140 g/ha
O=C(O)c1nc(-c2c(Cl)cc(C(F)(F)F)cc2Cl)ccc1Cl [F156, 3-Chloro-6-(2,6-dichloro-4-(trifluoromethyl)phenyl)picolinic acid]	95 to 100%

Same assay, conditions: post-emergence, 336 h, AVEFA: wild oat (Avena fatua), 140 g ai/ha, 14 days after application, read-out: Visual Growth Reduction (%) 14 Days After Application, AVEFA

Structure (SMILES)	pest or weed control at 140 g/ha
O=C(O)c1nc(-c2c(Cl)cc(C(F)(F)F)cc2Cl)ccc1Cl [F156, 3-Chloro-6-(2,6-dichloro-4-(trifluoromethyl)phenyl)picolinic acid]	0 to 29%

Same assay, conditions: post-emergence, 336 h, CHEAL: lambsquarters (Chenopodium album), 140 g ai/ha, 14 days after application, read-out: Visual Growth Reduction (%) 14 Days After Application, CHEAL

Structure (SMILES)	pest or weed control at 140 g/ha
O=C(O)c1nc(-c2c(Cl)cc(C(F)(F)F)cc2Cl)ccc1Cl [F156, 3-Chloro-6-(2,6-dichloro-4-(trifluoromethyl)phenyl)picolinic acid]	85 to 94%

Same assay, conditions: post-emergence, 336 h, CIRAR: canada thistle (Cirsium arvense), 140 g ai/ha, 14 days after application, read-out: Visual Growth Reduction (%) 14 Days After Application, CIRAR

Structure (SMILES)	pest or weed control at 140 g/ha
O=C(O)c1nc(-c2c(Cl)cc(C(F)(F)F)cc2Cl)ccc1Cl [F156, 3-Chloro-6-(2,6-dichloro-4-(trifluoromethyl)phenyl)picolinic acid]	75 to 84%

Same assay, conditions: post-emergence, 336 h, CYPES: yellow nutsedge (Cyperus esculentus), 140 g ai/ha, 14 days after application, read-out: Visual Growth Reduction (%) 14 Days After Application, CYPES

Structure (SMILES)	pest or weed control at 140 g/ha
O=C(O)c1nc(-c2c(Cl)cc(C(F)(F)F)cc2Cl)ccc1Cl [F156, 3-Chloro-6-(2,6-dichloro-4-(trifluoromethyl)phenyl)picolinic acid]	0 to 29%

Same assay, conditions: post-emergence, 336 h, DIGSA: crabgrass (Digitaria sanguinalis), 140 g ai/ha, 14 days after application, read-out: Visual Growth Reduction (%) 14 Days After Application, DIGSA

Structure (SMILES)	pest or weed control at 140 g/ha
O=C(O)c1nc(-c2c(Cl)cc(C(F)(F)F)cc2Cl)ccc1Cl [F156, 3-Chloro-6-(2,6-dichloro-4-(trifluoromethyl)phenyl)picolinic acid]	85 to 94%

Same assay, conditions: post-emergence, 336 h, ECHCG: barnyardgrass (Echinochloa crus-galli), 140 g ai/ha, 14 days after application, read-out: Visual Growth Reduction (%) 14 Days After Application, ECHCG

Structure (SMILES)	pest or weed control at 140 g/ha
COC(=O)c1nc(-c2cc(C#N)c(C(F)(F)F)cc2Cl)ccc1Cl [F326, Methyl 3-chloro-6-(2-chloro-5-cyano-4-(trifluoromethyl)phenyl)picolinate]	75 to 84%
O=C(O)c1nc(-c2c(Cl)cc(C(F)(F)F)cc2Cl)ccc1Cl [F156, 3-Chloro-6-(2,6-dichloro-4-(trifluoromethyl)phenyl)picolinic acid]	75 to 84%

Same assay, conditions: post-emergence, 336 h, IPOHE: ivy-leaf morning glory (Ipomoea hederacea), 140 g ai/ha, 14 days after application, read-out: Visual Growth Reduction (%) 14 Days After Application, IPOHE

Structure (SMILES)	pest or weed control at 140 g/ha
COC(=O)c1nc(-c2cc(C#N)c(C(F)(F)F)cc2Cl)ccc1Cl [F326, Methyl 3-chloro-6-(2-chloro-5-cyano-4-(trifluoromethyl)phenyl)picolinate]	0 to 29%
O=C(O)c1nc(-c2c(Cl)cc(C(F)(F)F)cc2Cl)ccc1Cl [F156, 3-Chloro-6-(2,6-dichloro-4-(trifluoromethyl)phenyl)picolinic acid]	95 to 100%

Same assay, conditions: post-emergence, 336 h, KCHSC: kochia (Bassia scoparia), 140 g ai/ha, 14 days after application, read-out: Visual Growth Reduction (%) 14 Days After Application, KCHSC

Structure (SMILES)	pest or weed control at 140 g/ha
COC(=O)c1nc(-c2cc(C#N)c(C(F)(F)F)cc2Cl)ccc1Cl [F326, Methyl 3-chloro-6-(2-chloro-5-cyano-4-(trifluoromethyl)phenyl)picolinate]	0 to 29%
O=C(O)c1nc(-c2c(Cl)cc(C(F)(F)F)cc2Cl)ccc1Cl [F156, 3-Chloro-6-(2,6-dichloro-4-(trifluoromethyl)phenyl)picolinic acid]	85 to 94%

Same assay, conditions: post-emergence, 336 h, ORYSA: rice (Oryza sativa), 140 g ai/ha, 14 days after application, read-out: Visual Growth Reduction (%) 14 Days After Application, ORYSA

Structure (SMILES)	pest or weed control at 140 g/ha
COC(=O)c1nc(-c2cc(C#N)c(C(F)(F)F)cc2Cl)ccc1Cl [F326, Methyl 3-chloro-6-(2-chloro-5-cyano-4-(trifluoromethyl)phenyl)picolinate]	0 to 29%
O=C(O)c1nc(-c2c(Cl)cc(C(F)(F)F)cc2Cl)ccc1Cl [F156, 3-Chloro-6-(2,6-dichloro-4-(trifluoromethyl)phenyl)picolinic acid]	45 to 59%

Same assay, conditions: post-emergence, 336 h, SETFA: giant foxtail (Setaria faberi), 140 g ai/ha, 14 days after application, read-out: Visual Growth Reduction (%) 14 Days After Application, SETFA

Structure (SMILES)	pest or weed control at 140 g/ha
COC(=O)c1nc(-c2cc(C#N)c(C(F)(F)F)cc2Cl)ccc1Cl [F326, Methyl 3-chloro-6-(2-chloro-5-cyano-4-(trifluoromethyl)phenyl)picolinate]	30 to 44%
O=C(O)c1nc(-c2c(Cl)cc(C(F)(F)F)cc2Cl)ccc1Cl [F156, 3-Chloro-6-(2,6-dichloro-4-(trifluoromethyl)phenyl)picolinic acid]	95 to 100%

Same assay, conditions: post-emergence, 336 h, SORVU: grain sorghum (Sorghum vulgare), 140 g ai/ha, 14 days after application, read-out: Visual Growth Reduction (%) 14 Days After Application, SORVU

Structure (SMILES)	pest or weed control at 140 g/ha
COC(=O)c1nc(-c2cc(C#N)c(C(F)(F)F)cc2Cl)ccc1Cl [F326, Methyl 3-chloro-6-(2-chloro-5-cyano-4-(trifluoromethyl)phenyl)picolinate]	95 to 100%
O=C(O)c1nc(-c2c(Cl)cc(C(F)(F)F)cc2Cl)ccc1Cl [F156, 3-Chloro-6-(2,6-dichloro-4-(trifluoromethyl)phenyl)picolinic acid]	75 to 84%

Same assay, conditions: post-emergence, 336 h, STEME: common chickweed (Stellaria media), 140 g ai/ha, 14 days after application, read-out: Visual Growth Reduction (%) 14 Days After Application, STEME

Structure (SMILES)	pest or weed control at 140 g/ha
COC(=O)c1nc(-c2cc(C#N)c(C(F)(F)F)cc2Cl)ccc1Cl [F326, Methyl 3-chloro-6-(2-chloro-5-cyano-4-(trifluoromethyl)phenyl)picolinate]	0 to 29%
O=C(O)c1nc(-c2c(Cl)cc(C(F)(F)F)cc2Cl)ccc1Cl [F156, 3-Chloro-6-(2,6-dichloro-4-(trifluoromethyl)phenyl)picolinic acid]	0 to 29%

Same assay, conditions: post-emergence, 336 h, TRZAS: wheat, spring (Triticum aestivum), 140 g ai/ha, 14 days after application, read-out: Visual Growth Reduction (%) 14 Days After Application, TRZAS

Structure (SMILES)	pest or weed control at 140 g/ha
COC(=O)c1nc(-c2cc(C#N)c(C(F)(F)F)cc2Cl)ccc1Cl [F326, Methyl 3-chloro-6-(2-chloro-5-cyano-4-(trifluoromethyl)phenyl)picolinate]	0 to 29%
O=C(O)c1nc(-c2c(Cl)cc(C(F)(F)F)cc2Cl)ccc1Cl [F156, 3-Chloro-6-(2,6-dichloro-4-(trifluoromethyl)phenyl)picolinic acid]	60 to 74%

Same assay, conditions: post-emergence, 336 h, blackgrass (Alopecurus myosuroides), 14 Days After Application, 140 g ai/ha, read-out: Visual Growth Reduction (%) ALOMY

Structure (SMILES)	pest or weed control at 140 g/ha
COC(=O)c1nc(-c2cc(C#N)c(C(F)(F)F)cc2Cl)ccc1Cl [F326, Methyl 3-chloro-6-(2-chloro-5-cyano-4-(trifluoromethyl)phenyl)picolinate]	0 to 29%

Same assay, conditions: post-emergence, 336 h, canada thistle (Cirsium arvense), 14 Days After Application, 140 g ai/ha, read-out: Visual Growth Reduction (%) CIRAR

Structure (SMILES)	pest or weed control at 140 g/ha
COC(=O)c1nc(-c2cc(C#N)c(C(F)(F)F)cc2Cl)ccc1Cl [F326, Methyl 3-chloro-6-(2-chloro-5-cyano-4-(trifluoromethyl)phenyl)picolinate]	45 to 59%

Same assay, conditions: post-emergence, 336 h, crabgrass (Digitaria sanguinalis), 14 Days After Application, 140 g ai/ha, read-out: Visual Growth Reduction (%) DIGSA

Structure (SMILES)	pest or weed control at 140 g/ha
COC(=O)c1nc(-c2cc(C#N)c(C(F)(F)F)cc2Cl)ccc1Cl [F326, Methyl 3-chloro-6-(2-chloro-5-cyano-4-(trifluoromethyl)phenyl)picolinate]	75 to 84%

Same assay, conditions: post-emergence, 336 h, lambsquarters (Chenopodium album), 14 Days After Application, 140 g ai/ha, read-out: Visual Growth Reduction (%) CHEAL

Structure (SMILES)	pest or weed control at 140 g/ha
COC(=O)c1nc(-c2cc(C#N)c(C(F)(F)F)cc2Cl)ccc1Cl [F326, Methyl 3-chloro-6-(2-chloro-5-cyano-4-(trifluoromethyl)phenyl)picolinate]	60 to 74%

Same assay, conditions: post-emergence, 336 h, redroot pigweed (Amaranthus retroflexus), 14 Days After Application, 140 g ai/ha, read-out: Visual Growth Reduction (%) AMARE

Structure (SMILES)	pest or weed control at 140 g/ha
COC(=O)c1nc(-c2cc(C#N)c(C(F)(F)F)cc2Cl)ccc1Cl [F326, Methyl 3-chloro-6-(2-chloro-5-cyano-4-(trifluoromethyl)phenyl)picolinate]	0 to 29%

Same assay, conditions: post-emergence, 336 h, wild oat (Avena fatua), 14 Days After Application, 140 g ai/ha, read-out: Visual Growth Reduction (%) AVEFA

Structure (SMILES)	pest or weed control at 140 g/ha
COC(=O)c1nc(-c2cc(C#N)c(C(F)(F)F)cc2Cl)ccc1Cl [F326, Methyl 3-chloro-6-(2-chloro-5-cyano-4-(trifluoromethyl)phenyl)picolinate]	0 to 29%

Same assay, conditions: post-emergence, 336 h, yellow nutsedge (Cyperus esculentus), 14 Days After Application, 140 g ai/ha, read-out: Visual Growth Reduction (%) CYPES

Structure (SMILES)	pest or weed control at 140 g/ha
COC(=O)c1nc(-c2cc(C#N)c(C(F)(F)F)cc2Cl)ccc1Cl [F326, Methyl 3-chloro-6-(2-chloro-5-cyano-4-(trifluoromethyl)phenyl)picolinate]	0 to 29%
